Experimental data taken from patent US8686224B2, “Plant defense signal peptides” (priority 2005, dated 2014).

Columns and labels:
[1] = molecular target: T1, 180 kD AtPep1-binding protein (AtPep1 receptor, At1g73080) (Arabidopsis thaliana, UniProt Q9SSL9); experiment: Photoaffinity labeling with 125I-azido-Cys-AtPep1, competition; details: microsomal membranes of wild type and control SALK plants, preincubated with 2.5 nM AtPep1
T1 construct: endogenous in cells
T1 sequence (Q9SSL9 29-1123): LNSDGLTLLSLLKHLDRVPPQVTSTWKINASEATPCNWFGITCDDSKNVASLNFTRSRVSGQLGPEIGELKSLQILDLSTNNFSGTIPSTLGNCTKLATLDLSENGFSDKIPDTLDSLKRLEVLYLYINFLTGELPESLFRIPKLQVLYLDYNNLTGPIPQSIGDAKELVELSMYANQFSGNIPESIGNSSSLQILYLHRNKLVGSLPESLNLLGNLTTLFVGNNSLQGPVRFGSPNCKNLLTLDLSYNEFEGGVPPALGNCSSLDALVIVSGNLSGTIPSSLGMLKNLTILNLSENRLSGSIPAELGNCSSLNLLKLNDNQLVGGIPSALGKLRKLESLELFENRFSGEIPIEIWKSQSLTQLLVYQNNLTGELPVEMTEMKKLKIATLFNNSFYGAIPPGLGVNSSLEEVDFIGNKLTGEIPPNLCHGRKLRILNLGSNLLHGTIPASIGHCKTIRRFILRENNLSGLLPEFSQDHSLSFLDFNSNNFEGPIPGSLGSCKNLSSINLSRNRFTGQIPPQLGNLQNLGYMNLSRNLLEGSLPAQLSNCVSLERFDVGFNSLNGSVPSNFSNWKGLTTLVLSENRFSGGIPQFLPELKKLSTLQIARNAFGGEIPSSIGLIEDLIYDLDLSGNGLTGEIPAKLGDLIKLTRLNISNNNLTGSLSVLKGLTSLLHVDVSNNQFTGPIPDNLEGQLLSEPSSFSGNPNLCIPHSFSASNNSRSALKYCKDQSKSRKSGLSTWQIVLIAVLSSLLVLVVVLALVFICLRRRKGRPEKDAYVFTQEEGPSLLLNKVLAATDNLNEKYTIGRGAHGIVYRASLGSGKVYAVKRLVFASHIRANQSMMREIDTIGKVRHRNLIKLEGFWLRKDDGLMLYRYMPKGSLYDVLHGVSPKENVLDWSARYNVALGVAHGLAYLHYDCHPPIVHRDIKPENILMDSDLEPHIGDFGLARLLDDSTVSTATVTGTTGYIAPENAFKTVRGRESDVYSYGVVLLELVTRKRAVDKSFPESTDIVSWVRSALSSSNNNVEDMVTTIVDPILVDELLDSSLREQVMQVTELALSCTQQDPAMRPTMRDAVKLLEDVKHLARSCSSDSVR
Experimental: Photoaffinity labeling. To 1 mL of cultured cells in darkness was added ^125I-azido-Cys-AtPep1 (0.25 nM final concentration as described above) and the cells were shaken for 10 min on an orbital shaker (160 rpm) at room temperature. The cells were transferred to a 1.5 mL glass tube, centrifuged at 10,000×g and the sedimented cells were dispersed in 1 mL cold MS medium containing 3% sucrose and centrifuged as above. This wash was repeated twice. The cells were resuspended in 1 mL MS medium and irradiated with UV-B for 10 min on ice to photoactivate the azido group to effect the crosslinking. The cells were washed with 1 mL MS medium, centrifuged as above, and resuspended in 400 μL of 5% SDS. The cells were disrupted by boiling for 30 min, and the insoluble debris was removed by centrifugation at 10,000×g. Proteins in the clear supernatant were precipitated by adding 1.25 volumes of methanol/chloroform (vol/vol). […]
Microsomal fractions were prepared from one-month-old plants by differential centrifugation as previously described (Scheer and Ryan, Proc. Natl. Acad. Sci. 99:9585-9590, 2002). […] The membranes were incubated for 60 min at approximately 4° C., irradiated with UV-B for 15 min, separated by SDS-PAGE, dried and analyzed by radioautography to identify labeled proteins.

[2] = system: AtPEPR1 and AtPEPR2 transcripts; experiment: Expression analysis of AtPEPR1 and AtPEPR2 (Northern hybridization, quantitative RT-PCR); assay type: in vivo, Arabidopsis thaliana; details: within 30 min
Experimental: Expression analysis of AtPEPR1 and AtPEPR2. […] In order to elucidate the role of AtPEPR2 in AtPeps signal transduction, the gene expression patterns were analyzed in comparison with AtPEPR1.

## H-ATKVKAKQRGKEKVSSGRPGQHN-OH [AtPep1]
[1]
  photoaffinity labeled proteins after preincubation: absent
[2]
  induction of AtPEPR1 and AtPEPR2 transcripts: strong inducer
